Experimental data published in patent US20210330611A1, “THERAPY FOR NEUROLOGICAL DISEASES/DISORDERS” (priority 2020, published 2021).
Where “and” joins values, the source holds several entries; their conditions need not be identical. Equal values may be shown once. Where a name gives a salt, the structure may show the parent alone. Read-outs that look alike come from different tables or passages of the source.

Legend:
[1] = system: fibrin- and LPS-induced microglia activation; assay: cells; type: cell-based, rat
[2] = system: LPS-induced microglia activation; assay: Image-based assay of LPS-induced microglia activation (HTS and dose response); type: cell-based, rat; details: for inhibition at 10 µM: Rattus norvegicus, Microglia, read-out: LPS % inhibition
primary rat microglia [3] = system: primary rat microglia
primary rat microglia [4] = assay: Cell toxicity (dead cells, size <150 μm2) in coated fibrin (cFib) assay; details: primary microglia HTS;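 also: share of dead cells sized under 150 µm2 at 10 µM in fibrin-stimulated microglia HTS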
[5] = system: fibrin-induced microglia activation; assay: Image-based assay of fibrin-induced microglia activation (HTS and dose response); type: cell-based, rat; details: primary microglia HTS, fibrin stimulation; for inhibition at 10 µM: Rattus norvegicus, Microglia, read-out: Fibrin % inhibition
[6] = quadrant by fibrin and LPS inhibition, HTS at 10 μM
[7] = primary microglia HTS, LPS stimulation, compounds at 10 μM
[8] = fibrin assay, dead cells (size <150 μm2)
[9] = classification by fibrin and LPS inhibition, HTS at 10 μM
[10] = fibrin assay, dead cells (size <150 μm2), compounds at 10 μM
[11] = classification by fibrin and LPS inhibition in HTS
[12] = fibrin stimulation, cell size <150 μm2 as marker of toxicity
[13] = cell size >800 μm2 as marker of activation

C[C@]12C=CC(=O)C=C1CC[C@@H]1[C@@H]2[C@@H](O)C[C@@]2(C)[C@H]1CC[C@]2(O)C(=O)COC(=O)CCC(=O)O [Prednisolone Hemisuccinate]
Quadrant (FIG. 5b) [1, 6]: Q2
inhibition at 10 µM [2, 7]: 96%
LPS % cell toxicity (primary rat microglia [3]; rat): 3%
Fibrin % cell toxicity (primary rat microglia [4]; [8]): 3%
inhibition at 10 µM ([5]; compounds at 10 μM): 106%

O=C(Nc1ccccc1)OCC(CN1CCCCC1)OC(=O)Nc1ccccc1 (stereo not shown) [Diperodon Hydrochloride]
Quadrant (FIG. 5b) [1, 9]: Q4
inhibition at 10 µM [2, 7]: 26%
LPS % cell toxicity (primary rat microglia [3]; rat): 1%
Fibrin % cell toxicity (primary rat microglia [4]; [10]): 1%
inhibition at 10 µM ([5]; compounds at 10 μM): 42%

Cn1c(=O)c2c(ncn2CC(O)CO)n(C)c1=O (stereo not shown) [Dyphylline]
Quadrant (FIG. 5b) [1, 9]: Q4
inhibition at 10 µM [2, 7]: -6%
LPS % cell toxicity (primary rat microglia [3]; rat): 0%
Fibrin % cell toxicity (primary rat microglia [4]; [10]): 0%
inhibition at 10 µM ([5]; compounds at 10 μM): -7%

N[C@@H](CC(=O)N1CCn2c(nnc2C(F)(F)F)C1)Cc1cc(F)c(F)cc1F [Sitagliptin]
Quadrant (FIG. 5b) [1, 11]: Q4
inhibition at 10 µM ([2]; 48 h): 4%
LPS % cell toxicity (primary rat microglia [3]; rat): 0%
Fibrin % cell toxicity (primary rat microglia [4]; [12]): 0%
inhibition at 10 µM [5, 13]: -16%

Cc1ncc(CSSCc2cnc(C)c(O)c2CO)c(CO)c1O [Pyritinol]
Quadrant (FIG. 5b) [1, 11]: Q4
inhibition at 10 µM ([2]; 48 h): 4%
LPS % cell toxicity (primary rat microglia [3]; rat): 0%
Fibrin % cell toxicity (primary rat microglia [4]; [12]): 1%
inhibition at 10 µM [5, 13]: -15%

CC[C@H](C)C(=O)O[C@H]1C[C@H](O)C=C2C=C[C@H](C)[C@H](CC[C@@H](O)C[C@@H](O)CC(=O)O)[C@H]21 [Pravastatin Sodium]
Quadrant (FIG. 5b) [1, 11]: Q4
LPS % inhibition [2]: 11%
LPS % cell toxicity (primary rat microglia [3]; rat): 0%
Fibrin % cell toxicity (primary rat microglia [4]; [12]): 1%
Fibrin % inhibition [5, 13]: 21%

CCCOc1ccc(C(=O)OCCN(CC)CC)cc1N [Proparacaine]
Quadrant (FIG. 5b) [1, 11]: Q4
inhibition at 10 µM ([2]; 48 h): 13%
LPS % cell toxicity (primary rat microglia [3]; rat): 0%
Fibrin % cell toxicity (primary rat microglia [4]; [12]): 1%
inhibition at 10 µM [5, 13]: -6%

COc1ccc2c(c1)c(CC(=O)OCC(=O)O)c(C)n2C(=O)c1ccc(Cl)cc1 [Acemetacin]
Quadrant (FIG. 5b) [1, 6]: Q4
inhibition at 10 µM [2, 7]: 17%
LPS % cell toxicity (primary rat microglia [3]; rat): 0%
Fibrin % cell toxicity (primary rat microglia [4]; [8]): 1%
inhibition at 10 µM ([5]; compounds at 10 μM): -16%

Eprinomectin
Quadrant (FIG. 5b) [1, 9]: Q4
LPS % inhibition [2, 7]: 8%
LPS % cell toxicity (primary rat microglia [3]): 1%
Fibrin % cell toxicity (primary rat microglia [4]; [10]): 1%
Fibrin % inhibition ([5]; compounds at 10 μM): −3%

CCCc1ncc(C[n+]2ccccc2C)c(N)n1 [Amprolium]
Quadrant (FIG. 5b) [1, 6]: Q4
inhibition at 10 µM [2, 7]: 8%
LPS % cell toxicity (primary rat microglia [3]; rat): 0%
Fibrin % cell toxicity (primary rat microglia [4]; [8]): 1%
inhibition at 10 µM ([5]; compounds at 10 μM): -10%

CS(=O)(=O)c1ccc(C2=C(c3ccccc3)C(=O)OC2)cc1 [Rofecoxib]
Quadrant (FIG. 5b) [1, 11]: Q4
inhibition at 10 µM ([2]; 48 h): 14%
LPS % cell toxicity (primary rat microglia [3]; rat): 0%
Fibrin % cell toxicity (primary rat microglia [4]; [12]): 0%
inhibition at 10 µM [5, 13]: 15%

OCCN1CCN(CCCN2c3ccccc3Sc3ccc(Cl)cc32)CC1 [Perphenazine]
Quadrant (FIG. 5b) [1, 11]: Q4
inhibition at 10 µM ([2]; 48 h): 23%
LPS % cell toxicity (primary rat microglia [3]; rat): 1%
Fibrin % cell toxicity (primary rat microglia [4]; [12]): 1%
inhibition at 10 µM [5, 13]: 23%

CC(=O)Oc1c(C)cccc1C(=O)O [Cresopyrine, Cresopirine]
Quadrant (FIG. 5b) [1, 9]: Q4
LPS % inhibition [2, 7]: 15%
LPS % cell toxicity (primary rat microglia [3]): 1%
Fibrin % cell toxicity (primary rat microglia [4]; [10]): 1%
Fibrin % inhibition ([5]; compounds at 10 μM): 13%

NCC(CC(=O)O)c1ccc(Cl)cc1 (racemic) [(±)-baclofen, Baclofen]
Quadrant (FIG. 5b) [1, 6]: Q4
LPS % inhibition [2, 7]: 9%
LPS % cell toxicity (primary rat microglia [3]): 0%
Fibrin % cell toxicity (primary rat microglia [4]; [8]): 0%
Fibrin % inhibition ([5]; compounds at 10 μM): −8%

N[C@@H](COP(=O)(O)O)C(=O)O [Phosphonoserine]
Quadrant (FIG. 5b) [1, 11]: Q4
inhibition at 10 µM ([2]; 48 h): 10%
LPS % cell toxicity (primary rat microglia [3]; rat): 0%
Fibrin % cell toxicity (primary rat microglia [4]; [12]): 1%
inhibition at 10 µM [5, 13]: -6%

C=CCc1ccc(O)c(OC)c1 [Eugenol]
Quadrant (FIG. 5b) [1, 9]: Q4
inhibition at 10 µM [2, 7]: 20%
LPS % cell toxicity (primary rat microglia [3]; rat): 0%
Fibrin % cell toxicity (primary rat microglia [4]; [10]): 0%
inhibition at 10 µM ([5]; compounds at 10 μM): 37%

CCN1CCCC(OC(=O)C(c2ccccc2)c2ccccc2)C1 (stereo not shown) [Piperidolate Hydrochloride]
Quadrant (FIG. 5b) [1, 11]: Q4
inhibition at 10 µM ([2]; 48 h, primary microglia HTS, LPS stimulation, cell size >800 μm2 as marker of activation): 8%
LPS % cell toxicity (primary rat microglia [3]; rat): 0%
Fibrin % cell toxicity (primary rat microglia [4]; [12]): 0%
inhibition at 10 µM [5, 13]: -21%

COc1ccc2c(c1)[C@]13CCCC[C@@H]1[C@H](C2)N(C)CC3 [Dextromethorphan]
Quadrant (FIG. 5b) [1, 9]: Q4
LPS % inhibition ([2]; primary microglia HTS, LPS stimulation, compounds at 10 μM, 10 µM): 4% and −5%
LPS % cell toxicity (primary rat microglia [3]; rat): 0%
Fibrin % cell toxicity (primary rat microglia [4]; [10]): 1%
Fibrin % inhibition ([5]; compounds at 10 μM, 10 µM): −18% and −20%

CC1CC(OC(=O)C(O)c2ccccc2)CC(C)(C)N1C (stereo not shown) [Eucatropine Hydrochloride]
Quadrant (FIG. 5b) [1, 9]: Q4
inhibition at 10 µM [2, 7]: 24%
LPS % cell toxicity (primary rat microglia [3]; rat): 0%
Fibrin % cell toxicity (primary rat microglia [4]; [10]): 1%
inhibition at 10 µM ([5]; compounds at 10 μM): 1%

N=C(N)N1CCc2ccccc2C1 [Debrisoquin]
Quadrant (FIG. 5b) [1, 9]: Q4
inhibition at 10 µM [2, 7]: 17%
LPS % cell toxicity (primary rat microglia [3]; rat): 0%
Fibrin % cell toxicity (primary rat microglia [4]; [10]): 1%
inhibition at 10 µM ([5]; compounds at 10 μM): 8%

N#CC(c1ccc(Cl)cc1)c1c(Cl)cc(-n2ncc(=O)[nH]c2=O)cc1Cl (stereo not shown) [Diclazuril]
Quadrant (FIG. 5b) [1, 9]: Q4
inhibition at 10 µM [2, 7]: 21%
LPS % cell toxicity (primary rat microglia [3]; rat): 0%
Fibrin % cell toxicity (primary rat microglia [4]; [10]): 1%
inhibition at 10 µM ([5]; compounds at 10 μM): 48%

CC(=O)OCC(=O)NCCCOc1cccc(CN2CCCCC2)c1 [Roxatidine acetate]
Quadrant (FIG. 5b) [1, 11]: Q4
inhibition at 10 µM ([2]; 48 h): 6%
LPS % cell toxicity (primary rat microglia [3]; rat): 0%
Fibrin % cell toxicity (primary rat microglia [4]; [12]): 1%
inhibition at 10 µM [5, 13]: 22%

CN[C@@H]1[C@@H](O)[C@@H](O[C@@H]2[C@@H](O)[C@H](O[C@H]3OC(CN)=CC[C@H]3N)[C@@H](N)C[C@H]2N)OC[C@]1(C)O [Sisomicin Sulfate]
Quadrant (FIG. 5b) [1, 11]: Q4
inhibition at 10 µM ([2]; 48 h): 10%
LPS % cell toxicity (primary rat microglia [3]; rat): 0%
Fibrin % cell toxicity (primary rat microglia [4]; [12]): 0%
inhibition at 10 µM [5, 13]: -41%

CCCCNc1ccc(C(=O)OCCOCCOCCOCCOCCOCCOCCOCCOCCOC)cc1 [Benzonatate]
Quadrant (FIG. 5b) [1, 6]: Q4
inhibition at 10 µM [2, 7]: 12%
LPS % cell toxicity (primary rat microglia [3]; rat): 0%
Fibrin % cell toxicity (primary rat microglia [4]; [8]): 1%
inhibition at 10 µM ([5]; compounds at 10 μM): 0%

CCCCOC(=O)c1ccccc1C(=O)OCCCC [Dibutyl Phthalate]
Quadrant (FIG. 5b) [1, 9]: Q4
inhibition at 10 µM [2, 7]: 9%
LPS % cell toxicity (primary rat microglia [3]; rat): 0%
Fibrin % cell toxicity (primary rat microglia [4]; [10]): 1%
inhibition at 10 µM ([5]; compounds at 10 μM): -30%

NC(=O)c1cnccn1 [Pyrazinamide]
Quadrant (FIG. 5b) [1, 11]: Q4
inhibition at 10 µM ([2]; 48 h): 13%
LPS % cell toxicity (primary rat microglia [3]; rat): 0%
Fibrin % cell toxicity (primary rat microglia [4]; [12]): 0%
inhibition at 10 µM [5, 13]: -20%

Nc1c(Br)cc(Br)cc1CN[C@H]1CC[C@H](O)CC1 [Ambroxol Hydrochloride]
Quadrant (FIG. 5b) [1, 6]: Q4
inhibition at 10 µM [2, 7]: 9%
LPS % cell toxicity (primary rat microglia [3]; rat): 0%
Fibrin % cell toxicity (primary rat microglia [4]; [8]): 0%
inhibition at 10 µM ([5]; compounds at 10 μM): -19%

C[C@@H]1C[C@H]2[C@@H]3CCC4=CC(=O)C=C[C@]4(C)[C@@]3(Cl)[C@@H](O)C[C@]2(C)[C@@]1(OC(=O)c1ccco1)C(=O)CCl [Mometasone Furoate]
Quadrant (FIG. 5b) [1, 6]: Q2
inhibition at 10 µM [2, 7]: 106%
LPS % cell toxicity (primary rat microglia [3]; rat): 4%
Fibrin % cell toxicity (primary rat microglia [4]; [8]): 3%
inhibition at 10 µM ([5]; compounds at 10 μM): 100%

CCOC(=O)C1=C(C)NC(C)=C(C(=O)OC)C1c1cccc(Cl)c1Cl (stereo not shown) [Felodipine]
Quadrant (FIG. 5b) [1, 9]: Q4
inhibition at 10 µM [2, 7]: 14%
LPS % cell toxicity (primary rat microglia [3]; rat): 0%
Fibrin % cell toxicity (primary rat microglia [4]; [10]): 1%
inhibition at 10 µM ([5]; compounds at 10 μM): 2%
